In data set [1] the test system is CSP processing in P. berghei sporozoites. Kind of data set: Pulse-chase metabolic labeling of CSP processing, P. berghei sporozoites. The note with it: two hour chase at 28° C.; 10 mM E-64, 1 mM PMSF, 0.3 mM aprotinin, 100 mM 3,4 DCl, 75 mM leupeptin, 100 mM TLCK, 1 mM pepstatin, 1 mM 1,10 phenanthroline, 5 mM EDTA. Type of data set: cell-based, Plasmodium berghei. The method, then:
P. berghei sporozoites were incubated in Dulbecco's Modified Eagle Medium (DMEM; Invitrogen, Carlsbad, Calif.) without cysteine (Cys) and methionine (Met), containing 1% BSA and […] L-[35 S]-Cys/Met (Pro-Mix, Amersham Pharmacia) in a total volume of 200 μl for one hour at 28° C. They were then washed and resuspended in DMEM/BSA containing unlabeled Cys/Met at 28° C. for the indicated time in the presence or absence of the indicated protease inhibitor. Sporozoites were then lysed and CSP was immunoprecipitated and analyzed by autoradiography as outlined below.
When sporozoites were incubated with specific inhibitors, their concentrations were as follows: 10 […] E-64; 1 mM phenylmethylsulfonyl fluoride (PMSF); 0.3 mM aprotinin; 100 mM 3,4 DCl; 75 mM leupeptin; 100 mM TLCK; 1 mM pepstatin; 1 mM 1,10 phenanthroline; 5 mM EDTA; 0.5% sodium azide. To check for toxicity by propidium iodide (PI) staining, P. berghei sporozoites were incubated in the presence or absence of the various protease inhibitors for two hours at 28° C., PI was then added to a final concentration of […] for five minutes at 28° C. The sporozoites were washed and viewed under a fluorescent microscope.
Metabolically-labeled sporozoites were lysed in lysis buffer (1% Triton X-100, 50 mM Tris-HCl pH 8.0) with 150 mM NaCl containing a protease inhibitor cocktail (Complete Mini-Tablets, Roche) for one hour at 4° C. The lysates were incubated with mAb 3D11 conjugated to agarose overnight at 4° C. with agitation, and the beads were then washed sequentially with lysis buffer containing 150 mM NaCl, high salt buffer (500 mM NaCl in lysis buffer), lysis buffer without added NaCl, and pre-elution buffer (0.5% Triton X-100, 10 mM Tris-HCl pH 6.8). CSP was eluted with 1% SDS in 0.1 M glycine pH 1.8, neutralized with 1.5 M Tris-HCl pH 8.8, and run on a 7.5% SDS-polyacrylamide gel under nonreducing conditions.
P. berghei sporozoites were metabolically labeled as previously described (Bruna-Romero, O., et al.). Briefly, sporozoites were labeled in Dulbecco's Modified Eagle Medium containing 1% BSA (DMEM/BSA) without Cys/Met and with 400 μCi/ml L-[^35S]Cys/Met for one hour at 28° C. and chased in DMEM/BSA with Cys/Met at 28° C. in the presence of 10 μM E-64 or the indicated concentrations of allicin. Labeled sporozoites were lysed in 1% Triton X-100/150 mM NaCl/50 mM Tris-HCl pH 8.0 with protease inhibitors, and lysates were incubated with 3D11-sepharose overnight at 4° C. CSP was eluted with 1% SDS in 0.1 M glycine pH 1.8, neutralized with Tris-HCl pH 8.8, and run on a 7.5% SDS-polyacrylamide gel under nonreducing conditions. The gel was fixed, enhanced with Amplify (Amersham Pharmacia), dried and exposed to film.
P. berghei sporozoites were metabolically labeled in DMEM without Cys/Met, 1% BSA and 400 μCi/ml L-[^355]-Cys/Met for 1 hour at 28° C. and then kept on ice or chased at 28° C. for the indicated times. Details of this procedure are outlined in (Coppi et al., 2005). To investigate the kinetics of processing in the presence of hepatocytes, sporozoites were labeled as above, chased at 28° C. for 1 hour and then centrifuged (300×g) onto glass coverslips with Hepa 1-6 cells and incubated at 37° C. for 5, 15 or 30 minutes. To investigate the effect of antibodies on CSP cleavage, sporozoites were labeled as above and then chased for 2 hours in the presence of the indicated antibody. Monoclonal antibodies were used as purified antibodies at the indicated concentrations and the IgG fraction of the NH2-terminal antiserum was used after isolation by Protein A (Vivapure maxiprepA; Sartorius, Edgewood, N.Y.). In all cases, labeled sporozoites (with or without Hepa 1-6 cells) were lysed and labeled CSP was immunoprecipitated with mAb-3D11 conjugated to sepharose or in the case of P. falciparum CSP, with mAb-2A10 conjugated to sepharose, as previously described (Coppi et al., 2005). CSP was eluted from the beads, run on an SDS-PAGE gel which was enhanced, dried and exposed to film. […]

The test system of data set [2] is P. berghei sporozoites. The format is cell-based, Plasmodium berghei. Conditions: sporozoites preincubated two hours with inhibitor, Hepa 1-6 cells, one hour. The method, then: %invasion=total sporozites−extracellular sporozites×100/total sporozites
Invasion assays were performed as previously described (Pinzon-Ortiz, C., et al.) with some modifications. […] Cells were then washed, fixed, and sporozoites were stained with a double staining assay that distinguishes between intracellular and extracellular sporozoites (Renia, L., et al.). […]

The test system of data set [3] is CSP cleavage in P. berghei sporozoites. Kind of data set: Cell contact assay (CSP cleavage on contact with hepatocytes). The format is cell-based, Plasmodium berghei. As to the method: Hepa 1-6 cells were seeded on glass coverslips at a density of 2×10^5 cells per coverslip and grown until confluent. P. berghei sporozoites were incubated in DMEM±10 mM E-64 at 4° C. for two hours. Thirty minutes before sporozoites were added to coverslips, Cytochalasin D (CD) was added to all samples (final concentration, […]). Sporozoites were centrifuged onto coverslips (1250×g) for five minutes at 4° C. Coverslips were then brought to 37° C. for two minutes, fixed with 4% paraformaldehyde and stained with either mAb 3D11 followed by anti-mouse Ig FITC or the N-terminal antiserum (1:100) followed by anti-rabbit Ig FITC. […] As a control, sporozoites were spun onto coverslips without cells using the protocol outlined above.

Data set [4] concerns P. berghei sporozoites. Conditions: sporozoites incubated with inhibitor for two hours, then metabolically labeled. As to the method:
Panel A illustrates P. berghei sporozoites were metabolically labeled with [35 S]-Cys/Met and then washed and kept on ice (lane 1) or chased with cold medium for two hours at 28° C., in the absence (lane 2) or presence of the indicated protease inhibitors (lanes 3-11). After the chase, sporozoites were lysed, CSP was immunoprecipitated and analyzed by SDS-PAGE and autoradiography (abbreviations: Apr, aprotinin; DCl, 3,4 DCl; Leu, leupeptin; Pep, pepstatin; Phen, 1,10 phenanthroline). Panel B illustrates P. falciparum sporozoites were metabolically labeled as above and then kept on ice (lane 1) or chased with cold medium for ninety minutes in the absence (lane 2) or presence of E-64 (lane 3). Samples were processed as outlined above. Panel C illustrates P. berghei sporozoites were preincubated with buffer (lane 1) or the indicated compounds, washed, metabolically labeled with [^35S]-Cys/Met, lysed, and CSP was immunoprecipitated and analyzed by SDS-PAGE and autoradiography. (Abbreviations: Az=sodium azide).
In addition to the above, pulse-chase metabolic labeling experiments were performed with sporozoites of the human malaria parasite, Plasmodium falciparum. […] In order to insure that the protease inhibitors were not toxic to sporozoites, sporozoites were incubated with the various inhibitors for two hours and then propidium iodide (hereinafter, “PI”) was added, which is a fluorescent molecule that enters permeabilized cells.

The target in data set [5] is Plasmodium berghei circumsporozoite protein (CSP), full-length, high molecular weight form (Plasmodium berghei) (UniProt P23093). Nature of the data set: cell-based or functional assay.

Non-standard residues stand in square brackets, D forms with d. Residues, ends and D or L forms follow the SMILES beside them. *: point of attachment. Sta = CC(C)C[C@H](N)[C@@H](O)CC(=O)O; Isovaleryl = CC(C)CC(=O)*

On to `c1cnc2c(c1)ccc1cccnc12` [1,10 phenanthroline], for which, in data set [1], the “effect on CSP processing” value was “no effect on CSP processing”.

Regarding `O=c1oc(Cl)c(Cl)c2ccccc12` [3,4 DCl, 3,4-dichloroisocoumarin], the “effect on sporozoite invasion” value with P. berghei sporozoites [2] is reported as “did not have significant inhibitory activity on invasion”. Further, the “effect on CSP processing” value in data set [1] is listed as “Neither compound had an effect on CSP processing”.

For the compound `C=C1[C@@H](C)[C@H]2[C@H](Cc3ccccc3)NC(=O)[C@]23[C@H](OC(C)=O)/C=C/[C@@](C)(O)C(=O)[C@@H](C)C/C=C/[C@H]3[C@@H]1O` [CD, cytochalasin D], in data set [3] (experiment 1, no cells, visualized with α-N), the “percentage staining with the N-terminal antiserum” value is listed as 85% ± 1.1. Further, the “Number of Sporozoites Visualized” value in data set [3] (experiment 1, wildtype sporozoites, Hepa 1-6, visualized with 3D11) is reported as 244 ± 3; in data set [3] (experiment 2, GFP sporozoites, Hepa 1-6, visualized by GFP), 452 ± 8; in data set [3] (experiment 2, GFP sporozoites, Hepa 1-6, visualized with α-N) it was 98 ± 2.

`O=C(O)CN(CCN(CC(=O)O)CC(=O)O)CC(=O)O` [EDTA]: the “effect on CSP processing” value in data set [1] is listed as “no effect on CSP processing”.

For `O=S(=O)(F)Cc1ccccc1` [PMSF, phenylmethylsulfonyl fluoride], the “effect on sporozoite invasion” value in the data set on P. berghei sporozoites [2] is recorded as “had inhibitory activity”. Besides, the “effect on CSP processing” value in data set [1] was “inhibited CSP processing”. Further, in the data set with P. berghei sporozoites [4], the “CSP synthesis after incubation with inhibitor” value is recorded as “not affected”.

As for `Cc1ccc(S(=O)(=O)N[C@@H](CCCCN)C(=O)CCl)cc1` [TLCK], the “effect on CSP processing” value in data set [1] is “inhibited CSP processing”.

Take `CC(=O)N[C@@H](CC(C)C)C(=O)N[C@@H](CC(C)C)C(=O)N[C@H](C=O)CCCNC(=N)N` [leupeptin]: in the data set with P. berghei sporozoites [2], the “effect on sporozoite invasion” value is reported as “had inhibitory activity”. The “effect on CSP processing” value in data set [1] is on record as “inhibited CSP processing”. Moreover, in the data set with P. berghei sporozoites [4], the “CSP synthesis after incubation with inhibitor” value was “not affected”.

As to `CC(C)CC(=O)N[C@H](C(=O)N[C@H](C(=O)N[C@@H](CC(C)C)[C@@H](O)CC(=O)N[C@@H](C)C(=O)N[C@@H](CC(C)C)[C@@H](O)CC(=O)O)C(C)C)C(C)C` [pepstatin] (Isovaleryl-VV[Sta]A[Sta]-OH), the “effect on sporozoite invasion” value in the data set with P. berghei sporozoites [2] is on record as “no effect on invasion”. Besides, the “effect on CSP processing” value in data set [1] is reported as “no effect on CSP processing”.

Consider aprotinin, for which the “effect on sporozoite invasion” value in the data set with P. berghei sporozoites [2] is “did not have significant inhibitory activity on invasion”. Besides, the “effect on CSP processing” value in data set [1] was “Neither compound had an effect on CSP processing”.

Compound mAb 3D11 (antibody) showed an inhibition of CSP cleavage at 10 µg/ml, pulse-chase metabolic labeling in data set [5] of 50 to 75%.

Source of the values: patent publication US20130022612A1, “METHODS AND COMPOSITIONS FOR MALARIA PROPHYLAXIS” (priority 2004, published 2013).
